Experimental data taken from US20260191968A1, “PROTAC DEGRADERS OF MLLT1 AND/OR MLLT3” (DARK BLUE THERAPEUTICS LTD, priority 2024, published 2026).

Target: T1, MLLT1 (Homo sapiens, UniProt Q03111)
T1 construct: host or cells: MV4-11
T1 sequence (Q03111 1-559): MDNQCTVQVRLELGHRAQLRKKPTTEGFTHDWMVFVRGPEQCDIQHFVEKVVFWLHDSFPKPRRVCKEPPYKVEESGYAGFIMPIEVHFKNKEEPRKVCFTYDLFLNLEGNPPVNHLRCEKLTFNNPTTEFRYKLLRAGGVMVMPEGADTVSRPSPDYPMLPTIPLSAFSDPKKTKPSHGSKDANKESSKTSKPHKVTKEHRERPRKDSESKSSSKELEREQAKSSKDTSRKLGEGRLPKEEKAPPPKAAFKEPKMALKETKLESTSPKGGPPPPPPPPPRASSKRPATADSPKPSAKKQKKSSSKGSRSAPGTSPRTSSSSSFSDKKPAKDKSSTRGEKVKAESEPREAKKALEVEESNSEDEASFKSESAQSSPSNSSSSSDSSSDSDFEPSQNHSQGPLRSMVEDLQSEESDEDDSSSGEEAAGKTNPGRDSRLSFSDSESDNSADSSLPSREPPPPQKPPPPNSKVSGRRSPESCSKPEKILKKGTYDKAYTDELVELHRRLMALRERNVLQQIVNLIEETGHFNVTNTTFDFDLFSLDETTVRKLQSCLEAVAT
Experiment: MLLT1 degradation assay in MV4-11 cells (JESS chemiluminescent detection), three concentrations, 24 h
Type: cell-based
Details: with respect to DMSO control
Procedure: MLLT1 degradation efficacy of compounds were tested in an automated chemiluminescent detection system (JESS, Cat #004-650). […] 10 mM DMSO stocks were prepared, and cells were treated with three concentrations of test compounds viz. 1000, 100 and 10 nM at a final DMSO concentration of 0.1% and incubated for 24 h at 37° C., 5% CO2. […] Post run, data were analysed using “Compass for SW” software for chemiluminescent detection. The peak area for each band was used for the calculation of MLLT1 degradation with respect to DMSO control. Data is shown as “MLLT1% degradation”.

MLLT1% Degradation @ 0.1 μM | SMILES | MLLT1% Degradation @ 0.01 μM | MLLT1% Degradation @ 1 μM
D (Category D: D < 25% degradation) | CN1CCC[C@@H]1c1cc2cnc(NC(=O)c3cccc(OCCCCCCCC#Cc4cccc5c4C(=O)N(C4CCC(=O)NC4=O)C5=O)c3)cc2[nH]1 (stereo partly drawn) [Example 26, 3-((9-(2-(2,6-dioxopiperidin-3-yl)-1,3-dioxoisoindolin-4-yl)non-8-yn-1-yl)oxy)-N-(2-((R)-1-methylpyrrolidin-2-yl)-1H-pyrrolo[3,2-c]pyridin-6-yl)benzamide] | D (Category D: D < 25% degradation) | C (Category C: 25% ≤ C < 50% degradation)
D (Category D: D < 25% degradation) | CN1CCC[C@@H]1c1cc2cnc(NC(=O)c3cnn(CCCC4CCN(c5cccc6c5C(=O)N(C5CCC(=O)NC5=O)C6=O)CC4)c3)cc2[nH]1 (stereo partly drawn) [Example 38, 1-(3-{1-[2-(2,6-dioxopiperidin-3-yl)-1,3-dioxoisoindol-4-yl]piperidin-4-yl}propyl)-N-{2-[(2R)-1-methylpyrrolidin-2-yl]-1H-pyrrolo[3,2-c]pyridin-6-yl}pyrazole-4-carboxamide] | D (Category D: D < 25% degradation) | C (Category C: 25% ≤ C < 50% degradation)
D (Category D: D < 25% degradation) | CN1CCC[C@@H]1c1cc2cnc(NC(=O)c3ccc(CCC#Cc4cccc5c4CN(C4CCC(=O)NC4=O)C5=O)cn3)cc2[nH]1 (stereo partly drawn) [Example 49, 5-(4-(2-(2,6-dioxopiperidin-3-yl)-1-oxoisoindolin-4-yl)but-3-yn-1-yl)-N-(2-((R)-1-methylpyrrolidin-2-yl)-1H-pyrrolo[3,2-c]pyridin-6-yl)picolinamide] | D (Category D: D < 25% degradation) | C (Category C: 25% ≤ C < 50% degradation)
A (Category A: A ≥ 75% degradation) | CN1CCC[C@@H]1c1cc2cnc(NC(=O)c3ccc(-c4cnn(CCCC#Cc5cccc(C(=O)N[C@H]6CCC(=O)NC6=O)n5)c4)cc3)cc2[nH]1 [Example 62, N—((S)-2,6-dioxopiperidin-3-yl)-6-(5-(4-(4-((2-((R)-1-methylpyrrolidin-2-yl)-1H-pyrrolo[3,2-c]pyridin-6-yl)carbamoyl)phenyl)-1H-pyrazol-1-yl)pent-1-yn-1-yl) picolinamide] | B (Category B: 50% ≤ B < 75% degradation) | B (Category B: 50% ≤ B < 75% degradation)
D (Category D: D < 25% degradation) | CN1CCC[C@@H]1c1cc2cnc(NC(=O)c3ccc(CCCC#Cc4cccc(N5CCC(=O)NC5=O)n4)cc3)cc2[nH]1 [Example 63, (R)-4-(5-(6-(2,4-dioxotetrahydropyrimidin-1(2H)-yl)pyridin-2-yl)pent-4-yn-1-yl)-N-(2-(1-methylpyrrolidin-2-yl)-1H-pyrrolo[3,2-c]pyridin-6-yl)benzamide] | D (Category D: D < 25% degradation) | C (Category C: 25% ≤ C < 50% degradation)
A (Category A: A ≥ 75% degradation) | CN1CCC[C@@H]1c1[nH]c2cc(NC(=O)c3ccc(CCCCC#Cc4cccc5c4CN(C4CCC(=O)NC4=O)C5=O)nc3)ncc2c1Cl (stereo partly drawn) [Example 71, N-(3-chloro-2-((R)-1-methylpyrrolidin-2-yl)-1H-pyrrolo[3,2-c]pyridin-6-yl)-6-(6-(2-(2,6-dioxopiperidin-3-yl)-1-oxoisoindolin-4-yl)hex-5-yn-1-yl) nicotinamide] | A (Category A: A ≥ 75% degradation) | B (Category B: 50% ≤ B < 75% degradation)
A (Category A: A ≥ 75% degradation) | CN1CCC[C@@H]1c1[nH]c2cc(NC(=O)c3ccc(N4CCN(CC#Cc5cccc6c5CN(C5CCC(=O)NC5=O)C6=O)CC4)nc3)ncc2c1Cl (stereo partly drawn) [Example 72, N-(3-chloro-2-((R)-1-methylpyrrolidin-2-yl)-1H-pyrrolo[3,2-c]pyridin-6-yl)-6-(4-(3-(2-(2,6-dioxopiperidin-3-yl)-1-oxoisoindolin-4-yl)prop-2-yn-1-yl)piperazin-1-yl)nicotinamide] | A (Category A: A ≥ 75% degradation) | C (Category C: 25% ≤ C < 50% degradation)
A (Category A: A ≥ 75% degradation) | CCN1CCC[C@@H]1c1cc2cnc(NC(=O)c3ccc(N4CCC(CC#Cc5cccc6c5CN(C5CCC(=O)NC5=O)C6=O)CC4)nc3)cc2[nH]1 (stereo partly drawn) [Example 73, 6-(4-(3-(2-(2,6-dioxopiperidin-3-yl)-1-oxoisoindolin-4-yl)prop-2-yn-1-yl)piperidin-1-yl)-N-(2-((R)-1-ethylpyrrolidin-2-yl)-1H-pyrrolo[3,2-c]pyridin-6-yl)nicotinamide] | B (Category B: 50% ≤ B < 75% degradation) | B (Category B: 50% ≤ B < 75% degradation)

SMILES | MLLT1% Degradation @ 0.1 μM | MLLT1% Degradation @ 0.01 μM | MLLT1% Degradation @ 1 μM
CN1CCC[C@@H]1c1cc2cnc(NC(=O)CCCCCCNc3ccc4c(c3)C(=O)N(C3CCC(=O)NC3=O)C4=O)cc2[nH]1 (stereo partly drawn) [Example 27, 7-{[2-(2,6-dioxopiperidin-3-yl)-1,3-dioxoisoindol-5-yl]amino}-N-{2-[(2R)-1-methylpyrrolidin-2-yl]-1H-pyrrolo[3,2-c]pyridin-6-yl}heptanamide] | C (Category C: 25% ≤ C < 50% degradation) | C (Category C: 25% ≤ C < 50% degradation) | B (Category B: 50% ≤ B < 75% degradation)
CN1CCC[C@@H]1c1cc2cnc(NC(=O)CCCCCCCCNc3cccc4c3C(=O)N(C3CCC(=O)NC3=O)C4=O)cc2[nH]1 (stereo partly drawn) [Example 30, 9-{[2-(2,6-dioxopiperidin-3-yl)-1,3-dioxoisoindol-4-yl]amino}-N-{2-[(2R)-1-methylpyrrolidin-2-yl]-1H-pyrrolo[3,2-c]pyridin-6-yl}nonanamide] | B (Category B: 50% ≤ B < 75% degradation) | C (Category C: 25% ≤ C < 50% degradation) | A (Category A: A ≥ 75% degradation)
CN1CCC[C@@H]1c1cc2cnc(NC(=O)CCCC3CCCN(c4cccc5c4C(=O)N(C4CCC(=O)NC4=O)C5=O)C3)cc2[nH]1 (stereo partly drawn) [Example 44, 4-(1-(2-(2,6-dioxopiperidin-3-yl)-1,3-dioxoisoindolin-4-yl)piperidin-3-yl)-N-(2-((R)-1-methylpyrrolidin-2-yl)-1H-pyrrolo[3,2-c]pyridin-6-yl)butanamide] | C (Category C: 25% ≤ C < 50% degradation) | – | C (Category C: 25% ≤ C < 50% degradation)
CN1CCC[C@@H]1c1cc2cnc(NC(=O)c3cccc(NCC4CCN(c5cccc6c5C(=O)N(C5CCC(=O)NC5=O)C6=O)CC4)c3)cc2[nH]1 (stereo partly drawn) [Example 46, 3-(((1-(2-(2,6-dioxopiperidin-3-yl)-1,3-dioxoisoindolin-4-yl)piperidin-4-yl)methyl)amino)-N-(2-((R)-1-methylpyrrolidin-2-yl)-1H-pyrrolo[3,2-c]pyridin-6-yl)benzamide] | B (Category B: 50% ≤ B < 75% degradation) | – | B (Category B: 50% ≤ B < 75% degradation)
CN1CCCC1c1cc2cnc(NC(=O)c3ccc(OCC#Cc4cccc5c4CN(C4CCC(=O)NC4=O)C5=O)cn3)cc2[nH]1 (stereo not shown) [Example 50, 5-[3-[2-(2,6-dioxo-3-piperidyl)-1-oxo-isoindolin-4-yl]prop-2-ynoxy]-N-[2-(1-methylpyrrolidin-2-yl)-1H-pyrrolo[3,2-c]pyridin-6-yl]pyridine-2-carboxamide] | B (Category B: 50% ≤ B < 75% degradation) | B (Category B: 50% ≤ B < 75% degradation) | B (Category B: 50% ≤ B < 75% degradation)
CN1CCC[C@@H]1c1cc2cnc(NC(=O)c3ccc(N4CCC(N5CCN(c6cccc7c6C(=O)N(C6CCC(=O)NC6=O)C7=O)CC5)CC4)nc3)cc2[nH]1 (stereo partly drawn) [Example 64, 6-(4-(4-(2-(2,6-dioxopiperidin-3-yl)-1,3-dioxoisoindolin-4-yl)piperazin-1-yl)piperidin-1-yl)-N-(2-((R)-1-methylpyrrolidin-2-yl)-1H-pyrrolo[3,2-c]pyridin-6-yl)nicotinamide] | B (Category B: 50% ≤ B < 75% degradation) | B (Category B: 50% ≤ B < 75% degradation) | A (Category A: A ≥ 75% degradation)
Cc1ncsc1-c1ccc(CNC(=O)[C@@H]2C[C@@H](O)CN2C(=O)[C@@H](NC(=O)CCCCCCCCCCNC(=O)c2ccc(C(=O)Nc3cc4[nH]c([C@H]5CCCN5C)cc4cn3)cc2)C(C)(C)C)cc1 [Example 69, (2S,4R)-1-[(2S)-3,3-dimethyl-2-(11-{[4-({2-[(2R)-1-methylpyrrolidin-2-yl]-1H-pyrrolo[3,2-c]pyridin-6-yl}carbamoyl)phenyl]formamido}undecanamido)butanoyl]-4-hydroxy-N-{[4-(4-methyl-1,3-thiazol-5-yl)phenyl]methyl}pyrrolidine-2-carboxamide] | C (Category C: 25% ≤ C < 50% degradation) | C (Category C: 25% ≤ C < 50% degradation) | C (Category C: 25% ≤ C < 50% degradation)
